# Measurements: US10221160B2, “Metalloenzyme inhibitor compounds” (Mycovia Pharmaceuticals, Inc., priority 2012, dated 2019)
# Test system: C. albicans
# Assay: Minimum Inhibitory Concentration (MIC), CLSI M27-A2
# Type: cell-based
# Settings: Candida albicans, 48 h, about 50% growth reduction, approximately 48 h at 35 °C, read-out: Candida MIC
# Procedure: A. Minimum Inhibitory Concentration (MIC) Compounds were assessed for their ability to inhibit the growth of common strains of fungus, C. albicans using a standardized procedure (CLSI M27-A2). Stock solutions of the test compounds and standards were prepared in DMSO at 1,600 μg/mL (C. albicans). Eleven, serial, one-half dilutions of compounds were prepared in 96-well plates in RPMI+MOPS. The assay concentration ranges were 8-0.001 μg/mL (C. albicans). Cell suspensions of C. albicans were prepared and added to each well at concentrations of approximately 3.7×10^3 colony-forming-units per milliliter (cfu/mL). All testing was in duplicate. The inoculated plates were incubated for approximately 48 h at 35±1° C. At the completion of incubation the wells of each plate were evaluated visually for the presence of fungal growth. […] For QC purposes C. krusei isolate ATCC 6258 (4.0×10^3 cfu/mL) was included in the VOR assay.
row,MIC [µg/mL],SMILES
1,0.5,"OC(Cn1cncn1)(Cn1cncn1)c1ccc(F)cc1F [Fluconazole, reference compound]"
2,≤ 0.016,"N#Cc1ccc(-c2ccc(C(F)(F)C(O)(Cn3cnnn3)c3ccc(F)cc3F)nc2)cc1 (stereo not shown) [Example 1, 4-(6-(2-(2,4-Difluorophenyl)-1,1-difluoro-2-hydroxy-3-(1H-tetrazol-1-yl)propyl)pyridin-3-yl)benzonitrile]"
3,0.016,"C[C@@H](c1ncncc1F)[C@](O)(Cn1cncn1)c1ccc(F)cc1F [Voriconazole, reference compound]"

# Same assay, conditions: Candida albicans, rating scale, read-out: Candida MIC Rating
row,MIC [µg/mL],SMILES
1,< 0.5,"O=[N+]([O-])c1ccc(-c2ccc(C(F)(F)C(O)(Cn3cnnn3)c3ccc(F)cc3F)nc2)cc1 (stereo not shown) [Example 32, 2-(2,4-Difluorophenyl)-1,1-difluoro-1-(5-(4-nitrophenyl)pyridin-2-yl)-3-(1H-tetrazol-1-yl)propan-2-ol]"
2,> 4,"OC(Cn1ncnn1)(c1ccc(F)cc1F)C(F)(F)c1ccc(-c2ccc(OCC(F)(F)F)cc2)cn1 (stereo not shown) [Example 20, 2-(2,4-Difluorophenyl)-1,1-difluoro-3-(2H-tetrazol-1-yl)-1-(5-(4-(2,2,2-trifluoroethoxy)phenyl)pyridin-2-yl)propan-2-ol]"
3,< 0.5,"OC(Cn1cnnn1)(c1ccc(F)cc1F)C(F)(F)c1ccc(-c2cccc(OC(F)(F)F)c2)cn1 (stereo not shown) [Example 6, 2-(2,4-Difluorophenyl)-1,1-difluoro-3-(1H-tetrazol-1-yl)-1-(5-(3-(trifluoromethoxy)phenyl)pyridin-2-yl)propan-2-ol]"
4,< 0.5,"OC(Cn1cncn1)(c1ccc(F)cc1F)C(F)(F)c1ccc(-c2ccc(F)cc2)cn1 (stereo not shown) [Example 16, 2-(2,4-Difluorophenyl)-1,1-difluoro-1-(5-(4-fluorophenyl)pyridin-2-yl)-3-(1H-1,2,4-triazol-1-yl)propan-2-ol]"
5,< 0.5,"O=C(c1ccc(-c2ccc(C(F)(F)C(O)(Cn3cnnn3)c3ccc(F)cc3F)nc2)cc1)C(F)(F)F (stereo not shown) [Example 33, 1-(4-(6-(2-(2,4-Difluorophenyl)-1,1-difluoro-2-hydroxy-3-(1H-tetrazol-1-yl)propyl)pyridin-3-yl)phenyl)-2,2,2-trifluoroethanone]"
6,< 0.5,"CC(C)c1cccc(-c2ccc(C(F)(F)C(O)(Cn3cnnn3)c3ccc(F)cc3F)nc2)c1 (stereo not shown) [Example 24, 2-(2,4-Difluorophenyl)-1,1-difluoro-1-(5-(3-isopropylphenyl)pyridin-2-yl)-3-(1H-tetrazol-1-yl)propan-2-ol]"
7,1.5 to 4,OC(Cn1ncnn1)(c1ccc(F)cc1F)C(F)(F)c1ccc(-c2cccc(F)c2)cn1 (stereo not shown) [Example 21]
8,< 0.5,"N#Cc1ccc(-c2ccc(C(F)(F)C(O)(Cn3cnnn3)c3ccc(F)cc3F)nc2)cc1 (stereo not shown) [Example 1, 4-(6-(2-(2,4-Difluorophenyl)-1,1-difluoro-2-hydroxy-3-(1H-tetrazol-1-yl)propyl)pyridin-3-yl)benzonitrile]"
9,< 0.5,"OC(Cn1cnnn1)(c1ccc(F)cc1F)C(F)(F)c1ccc(-c2ccc(Cl)cc2)cn1 (stereo not shown) [Example 9, 1-(5-(4-Chlorophenyl)pyridin-2-yl)-2-(2,4-difluorophenyl)-1,1-difluoro-3-(1H-tetrazol-1-yl)propan-2-ol]"
10,< 0.5,"OC(Cn1cnnn1)(c1ccc(F)cc1F)C(F)(F)c1ccc(-c2ccc(OC(F)F)cc2)cn1 (stereo not shown) [Example 38, 1-(5-(4-(Difluoromethoxy)phenyl)pyridin-2-yl)-2-(2,4-difluorophenyl)-1,1-difluoro-3-(1H-tetrazol-1-yl)propan-2-ol]"
11,< 0.5,"OC(Cn1cnnn1)(c1ccc(F)cc1F)C(F)(F)c1ccc(-c2cc(F)ccc2F)cn1 (stereo not shown) [Example 10, 2-(2,4-Difluorophenyl)-1-(5-(2,5-difluorophenyl)pyridin-2-yl)-1,1-difluoro-3-(1H-tetrazol-1-yl)propan-2-ol]"
12,< 0.5,"OC(Cn1cnnn1)(c1ccc(F)cc1F)C(F)(F)c1ccc(-c2ccc(F)c(F)c2)cn1 (stereo not shown) [Example 25, 2-(2,4-Difluorophenyl)-1-(5-(3,4-difluorophenyl)pyridin-2-yl)-1,1-difluoro-3-(1H-tetrazol-1-yl)propan-2-ol]"
13,< 0.5,"OC(Cn1cnnn1)(c1ccc(F)cc1F)C(F)(F)c1ccc(-c2cccc(OC(F)F)c2)cn1 (stereo not shown) [Example 26, 1-(5-(3-(Difluoromethoxy)phenyl)pyridin-2-yl)-2-(2,4-difluorophenyl)-1,1-difluoro-3-(1H-tetrazol-1-yl)propan-2-ol]"
14,< 0.5,"OC(Cn1cnnn1)(c1ccc(F)cc1F)C(F)(F)c1ccc(-c2ccc(Cl)c(F)c2)cn1 (stereo not shown) [Example 29, 1-(5-(4-Chloro-3-fluorophenyl)pyridin-2-yl)-2-(2,4-difluorophenyl)-1,1-difluoro-3-(1H-tetrazol-1-yl)propan-2-ol]"
15,< 0.5,"OC(Cn1cnnn1)(c1ccc(F)cc1F)C(F)(F)c1ccc(-c2ccc(N3CCOCC3)cc2)cn1 (stereo not shown) [Example 36, 2-(2,4-Difluorophenyl)-1,1-difluoro-1-(5-(4-morpholinophenyl)pyridin-2-yl)-3-(1H-tetrazol-1-yl)propan-2-ol]"
16,< 0.5,"OC(Cn1cnnn1)(c1ccc(F)cc1F)C(F)(F)c1ccc(-c2ccc(OC(F)(F)F)cc2)cn1 (stereo not shown) [Example 7, 2-(2,4-Difluorophenyl)-1,1-difluoro-3-(1H-tetrazol-1-yl)-1-(5-(4-(trifluoromethoxy)phenyl)pyridin-2-yl) propan-2-ol]"
17,< 0.5,"CC(C)Oc1ccc(-c2ccc(C(F)(F)C(O)(Cn3cnnn3)c3ccc(F)cc3F)nc2)cc1 (stereo not shown) [Example 4, 2-(2,4-Difluorophenyl)-1,1-difluoro-1-(5-(4-isopropoxyphenyl)pyridin-2-yl)-3-(1H-tetrazol-1-yl)propan-2-ol]"
18,< 0.5,"CCOC(=O)C(F)(F)Oc1ccc(-c2ccc(C(F)(F)C(O)(Cn3cnnn3)c3ccc(F)cc3F)nc2)cc1 (stereo not shown) [Example 43, Ethyl 2-(4-(6-(2-(2,4-difluorophenyl)-1,1-difluoro-2-hydroxy-3-(1H-tetrazol-1-yl)propyl)pyridin-3-yl)phenoxy)-2,2-difluoroacetate]"
19,< 0.5,"OC(Cn1cnnn1)(c1ccc(Cl)cc1F)C(F)(F)c1ccc(-c2ccc(OC(F)(F)F)cc2)cn1 (stereo not shown) [Example 34, 2-(4-Chloro-2-fluorophenyl)-1,1-difluoro-3-(1H-tetrazol-1-yl)-1-(5-(4-(trifluoromethoxy)phenyl)pyridin-2-yl)propan-2-ol]"
20,< 0.5,"OC(Cn1cnnn1)(c1ccc(F)cc1F)C(F)(F)c1ccc(-c2ccc(OCCC(F)(F)F)cc2)cn1 (stereo not shown) [Example 44, 2-(2,4-Difluorophenyl)-1,1-difluoro-3-(1H-tetrazol-1-yl)-1-(5-(4-(3,3,3-trifluoropropoxy)phenyl)pyridin-2-yl)propan-2-ol]"
21,1.5 to 4,OC(Cn1ncnn1)(c1ccc(F)cc1F)C(F)(F)c1ccc(-c2ccc(C(F)(F)F)cc2)cn1 (stereo not shown) [Example 22]
22,< 0.5,"N#Cc1cccc(-c2ccc(C(F)(F)C(O)(Cn3cnnn3)c3ccc(F)cc3F)nc2)c1 (stereo not shown) [Example 3, 3-(6-(2-(2,4-Difluorophenyl)-1,1-difluoro-2-hydroxy-3-(1H-tetrazol-1-yl)propyl)pyridin-3-yl)benzonitrile]"
23,< 0.5,"OC(Cn1cnnn1)(c1ccc(F)cc1F)C(F)(F)c1ccc(-c2ccc(CC(F)(F)F)cc2)cn1 (stereo not shown) [Example 41, 2-(2,4-Difluorophenyl)-1,1-difluoro-3-(1H-tetrazol-1-yl)-1-(5-(4-(2,2,2-trifluoroethyl)phenyl)pyridin-2-yl)propan-2-ol]"
24,< 0.5,"OC(Cn1cncn1)(c1ccc(F)cc1F)C(F)(F)c1ccc(-c2ccc(OC(F)(F)F)cc2)cn1 (stereo not shown) [Example 18, 2-(2,4-Difluorophenyl)-1,1-difluoro-3-(1H-1,2,4-triazol-1-yl)-1-(5-(4-(trifluoromethoxy)phenyl)pyridin-2-yl) propan-2-ol]"
25,< 0.5,"Oc1ccc(-c2ccc(C(F)(F)C(O)(Cn3cnnn3)c3ccc(F)cc3F)nc2)cc1 (stereo not shown) [Example 23, 4-(6-(2-(2,4-Difluorophenyl)-1,1-difluoro-2-hydroxy-3-(1H-tetrazol-1-yl)propyl)pyridin-3-yl)phenol]"
26,< 0.5,"Oc1cccc(-c2ccc(C(F)(F)C(O)(Cn3cnnn3)c3ccc(F)cc3F)nc2)c1 (stereo not shown) [Example 30, 3-(6-(2-(2,4-Difluorophenyl)-1,1-difluoro-2-hydroxy-3-(1H-tetrazol-1-yl)propyl)pyridin-3-yl)phenol]"

# Same assay, conditions: rating scale
row,Candida MIC Rating,SMILES
1,A (≤0.5),"CC(F)(c1ccc(-c2ccc(Cl)cc2)cn1)C(O)(Cn1cnnn1)c1ccc(F)cc1F (stereo not shown) [Example 55, 3-(5-(4-Chlorophenyl)pyridin-2-yl)-2-(2,4-difluorophenyl)-3-fluoro-1-(1H-tetrazol-1-yl)butan-2-ol]"
2,A (≤0.5),"CC(F)(c1ccc(-c2ccc(F)cc2)cn1)C(O)(Cn1cnnn1)c1ccc(F)cc1F (stereo not shown) [Example 51, 2-(2,4-Difluorophenyl)-3-fluoro-3-(5-(4-fluorophenyl)pyridin-2-yl)-1-(1H-tetrazol-1-yl)butan-2-ol]"
3,C (>1.5-4),"CC(F)(c1ccc(-c2ccc(C(F)(F)F)cc2)cn1)C(O)(Cn1cnnn1)c1ccc(F)cc1F (stereo not shown) [Example 52, 2-(2,4-Difluorophenyl)-3-fluoro-1-(1H-tetrazol-1-yl)-3-(5-(4-(trifluoromethyl)phenyl)pyridin-2-yl)butan-2-ol]"
4,A (≤0.5),"CC(F)(c1ccc(-c2ccc(OCC(F)(F)F)cc2)cn1)C(O)(Cn1cnnn1)c1ccc(F)cc1F (stereo not shown) [Example 57, 2-(2,4-Difluorophenyl)-3-fluoro-1-(1H-tetrazol-1-yl)-3-(5-(4-(2,2,2-trifluoroethoxy)phenyl)pyridin-2-yl)butan-2-ol]"
5,A (≤0.5),"OC(Cn1cnnn1)(c1ccc(F)cc1F)C(F)(F)c1ccc(-c2ccc(OCC(F)(F)F)cc2)cn1 (stereo not shown) [Example 11, 2-(2,4-Difluorophenyl)-1,1-difluoro-3-(1H-tetrazol-1-yl)-1-(5-(4-(2,2,2-trifluoroethoxy)phenyl)pyridin-2-yl)propan-2-ol]"
